From ChEMBL document CHEMBL4346754, “Further exploration of an N-aryl phenoxyethoxy pyridinone-based series of mGlu3 NAMs: Challenging SAR, enantiospecific activity and in vivo efficacy” (Bioorg Med Chem Lett, 2019) come the findings set out here.

Series [1] has as its target Metabotropic glutamate receptor 3 (Rattus norvegicus) (UniProt P31422). Description: Negative allosteric modulation of rat mGlu3R expressed in HEK293 cells co-expressing Galpha15 assessed as decrease in glutamate-induced calcium mobilization relative to glutamate. The format is functional, cell-based. The arrangement: concentration or dose not given beside the values. A general note: A change in cytosolic calcium serves as a functional read-out for many receptors and channels.

For series [2], the target named is T1, Metabotropic glutamate receptor 3 (Rattus norvegicus, UniProt P31422). The series is described as follows: Negative allosteric modulation of rat mGlu3R expressed in HEK cells harboring GIRK assessed as reduction in glutamate-induced thallium flux. It is filed as cell-based.
Series [3] is described as follows: Fraction unbound in rat brain homogenate. It is filed as ADME, tissue-based.
The nature of series [4]: Unbound brain to plasma concentration ratio in rat. Particulars: read-out: K(p,uu,brain). The format is ADME, cell-free.
Series [5] is described as follows: Fraction unbound in rat plasma. It is filed as ADME, cell-free.
Series [6] is described as follows: Permeability coefficient, Kp in rat brain. It is filed as ADME, tissue-based.
Series [7] has as its system Mus musculus. Description: Anti-anxiety activity in C57BL/6J mouse assessed as increase in total number of open arm entries at 10 mg/kg, ip treated for 15 mins by elevated zero maze assay. The format is functional, organism-based.
Series [8] is described as follows: Drug level in mouse plasma at 10 mg/kg, ip. Conditions: in vivo. The format is ADME, organism-based.
The test system of series [9] is Mus musculus. Description: Antidepressant activity in ip dosed C57BL6/J mouse as […] in immobility time by tail suspension test. It is filed as functional. Particulars: read-out: MED.
Series [10] relates to Mus musculus. The series is described as follows: Anti-anxiety activity in C57BL/6J mouse assessed as increase in total time spent in open arms at 10 mg/kg, ip treated for 15 mins by elevated zero maze assay. The format is functional, organism-based.
The nature of series [11]: Drug level in mouse brain at 10 mg/kg, ip. It is filed as ADME, organism-based. Conditions: in vivo, read-out: Ct.
Series [12] has as its system Mus musculus. The series is described as follows: Antidepressant activity in ip dosed C57BL6/J mouse as total time of immobile by tail suspension test relative to control. The format is functional, organism-based.
Series [13] can be described thus: Plasma clearance in iv dosed rat. It is filed as ADME, organism-based.
Series [14] in a line: Volume of distribution at steady state in iv dosed rat. The format is ADME, organism-based. Particulars: in vivo, read-out: Vdss.
A short description of series [15]: Half life in iv dosed rat. Particulars: in vivo. The format is ADME, organism-based.
A short description of series [16]: MRT in iv dosed rat. The format is ADME, organism-based. Particulars: in vivo.
The nature of series [17]: Brain to plasma permeability coefficient, Kp in mouse at 10 mg/kg, ip. It is filed as ADME, organism-based.
In series [18] the test system is Mus musculus. The series is described as follows: Anti-anxiety activity in C57BL/6J mouse assessed as reduction in number of marbles buried at 10 mg/kg, ip treated for 15 mins by marble burying assay. The format is functional, organism-based.
The target of series [19] is T1, Metabotropic glutamate receptor 3. Description: Negative allosteric modulation of rat mGlu3R expressed in HEK cells harboring GIRK assessed as reduction in glutamate-induced thallium flux preincubated for 5 mins followed by glutamate addition and measured after 2 mins by BTC-AM-dye based fluorescence assay. It is filed as cell-based.
Series [20] relates to Mus musculus. The series is described as follows: Anti-anxiety activity in C57BL/6J mouse assessed as increase in total time spent in open arms at 15 mg/kg, ip treated for 15 mins by elevated zero maze assay. It is filed as functional, organism-based.
Series [21] concerns Mus musculus. The series is described as follows: Anti-anxiety activity in C57BL/6J mouse assessed as reduction in number of marbles buried at 15 mg/kg, ip treated for 15 mins by marble burying assay. The format is functional, organism-based.
Series [22] concerns Mus musculus. Description: Anti-anxiety activity in C57BL/6J mouse assessed as increase in total number of open arm entries at 15 mg/kg, ip treated for 15 mins by elevated zero maze assay. The format is functional, organism-based.

Activity calls are given as the source filed them. The calls are words filed in the database; no cut-off is given here. Bounds are passed on as bounds.

Broadly, the IC50 is the concentration needed to halve the response being measured. As usually defined, the fraction unbound is the share of the substance not bound to proteins or other matrix. By clearance is commonly meant the volume of plasma or blood freed of the substance per unit of time. As usually defined, the half-life is how long it takes for the measured level to halve. As usually defined, the MRT is a mean duration of stay, worked out from the concentration-time curve.

T1 sequence (P31422 whole entry): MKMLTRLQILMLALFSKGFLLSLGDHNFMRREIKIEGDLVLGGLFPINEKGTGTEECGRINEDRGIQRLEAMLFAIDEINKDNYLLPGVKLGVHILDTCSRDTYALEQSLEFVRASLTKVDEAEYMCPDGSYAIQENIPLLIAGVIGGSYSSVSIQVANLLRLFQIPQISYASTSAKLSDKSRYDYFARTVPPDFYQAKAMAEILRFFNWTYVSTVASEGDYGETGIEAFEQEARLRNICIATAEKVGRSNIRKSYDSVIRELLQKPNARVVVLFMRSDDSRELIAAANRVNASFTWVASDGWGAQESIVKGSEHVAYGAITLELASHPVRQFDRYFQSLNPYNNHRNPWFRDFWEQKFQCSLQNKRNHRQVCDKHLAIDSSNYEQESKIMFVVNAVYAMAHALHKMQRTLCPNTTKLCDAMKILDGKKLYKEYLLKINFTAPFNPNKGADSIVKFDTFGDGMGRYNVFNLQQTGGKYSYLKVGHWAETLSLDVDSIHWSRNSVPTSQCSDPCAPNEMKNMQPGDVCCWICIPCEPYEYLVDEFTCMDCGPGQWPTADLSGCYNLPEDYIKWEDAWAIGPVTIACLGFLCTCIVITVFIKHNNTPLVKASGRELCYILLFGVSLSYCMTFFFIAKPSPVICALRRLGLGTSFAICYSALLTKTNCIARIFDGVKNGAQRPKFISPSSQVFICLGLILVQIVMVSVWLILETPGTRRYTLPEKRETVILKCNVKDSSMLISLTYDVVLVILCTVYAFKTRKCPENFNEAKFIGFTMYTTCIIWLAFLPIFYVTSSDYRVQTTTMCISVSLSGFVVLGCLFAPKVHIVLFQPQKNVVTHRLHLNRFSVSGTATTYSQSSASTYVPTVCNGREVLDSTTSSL
Sequence of Metabotropic glutamate receptor 3 (Rattus norvegicus) (P31422 23-879 limits assumed): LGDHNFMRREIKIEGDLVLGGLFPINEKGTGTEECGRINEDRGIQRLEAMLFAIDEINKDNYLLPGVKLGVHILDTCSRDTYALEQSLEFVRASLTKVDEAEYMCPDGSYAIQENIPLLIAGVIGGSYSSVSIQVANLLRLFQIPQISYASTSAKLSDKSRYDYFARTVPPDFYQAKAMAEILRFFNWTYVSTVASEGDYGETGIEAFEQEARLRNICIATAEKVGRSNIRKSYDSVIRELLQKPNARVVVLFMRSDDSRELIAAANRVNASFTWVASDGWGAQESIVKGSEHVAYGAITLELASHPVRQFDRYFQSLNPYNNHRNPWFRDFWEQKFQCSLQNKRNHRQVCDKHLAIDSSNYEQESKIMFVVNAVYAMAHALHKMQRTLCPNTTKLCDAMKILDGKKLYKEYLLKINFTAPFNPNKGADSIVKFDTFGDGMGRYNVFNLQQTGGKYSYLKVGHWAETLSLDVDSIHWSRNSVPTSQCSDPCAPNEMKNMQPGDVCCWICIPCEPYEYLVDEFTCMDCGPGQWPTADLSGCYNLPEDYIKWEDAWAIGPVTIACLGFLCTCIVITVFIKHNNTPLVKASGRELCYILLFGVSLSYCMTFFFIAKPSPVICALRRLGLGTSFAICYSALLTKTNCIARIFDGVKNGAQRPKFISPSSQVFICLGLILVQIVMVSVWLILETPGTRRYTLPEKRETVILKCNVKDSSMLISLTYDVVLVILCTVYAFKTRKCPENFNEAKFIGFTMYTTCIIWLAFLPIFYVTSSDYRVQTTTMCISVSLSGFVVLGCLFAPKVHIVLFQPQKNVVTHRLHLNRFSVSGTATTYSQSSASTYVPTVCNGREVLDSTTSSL

As for `O=c1cc(OCC2CCc3ccccc3O2)ccn1-c1ccc(F)cc1` (racemic), in [1], the Activity was -1.7%. Moreover, in series [2], the IC50 was 7.7 µM.

Take `C[C@H](COc1ccccc1)Oc1ccn(-c2ccc(F)cc2)c(=O)c1`: the Activity in [1] was -2.2%. The IC50 in series [2] amounted to 3 µM.

With `COc1ccc(-n2ccc(O[C@H](C)COc3ccccc3)cc2=O)cc1`, the Activity in [1] is 19%. Besides, in series [2], the IC50 was over 10 µM.

Consider `Cc1cccc(-n2ccc(OC[C@H](C)Oc3ccccc3)cc2=O)c1`, for which the Activity in series [1] is -7.4%. The IC50 in series [2] was 1.3 µM.

In the case of `Cc1cccc(-n2ccc(OCC(C)COc3ccccc3)cc2=O)c1` (single isomer, unassigned; form 1) [listing 1 of 2 here], the Activity in series [1] is -6.6%.

With `Cc1cccc(-n2ccc(OCC(C)COc3ccccc3)cc2=O)c1` (single isomer, unassigned; form 1) [listing 2 of 2 here], the half-inhibitory concentration (IC50) in series [2] stood at 3.1 µM.

As to `Cc1cccc(-n2ccc(OC[C@@H](C)Oc3ccccc3)cc2=O)c1`, in series [1], the Activity turned out to be 4.7%. Besides, the IC50 in series [2] was over 10 µM.

For `C[C@H](COc1ccccc1)Oc1ccn(-c2cccc(Cl)c2)c(=O)c1`, the fraction unbound in [3] came out at 0.014; in [5], 0.045. Besides, the Activity in [1] is -11%. In addition, the Kp uu in [4] stood at 0.44. Besides, in series [2], the IC50 was found to be 0.52 µM. Further, the Kp in series [6] is 1.42.

For `C[C@H](COc1ccccc1)Oc1ccn(-c2ccc(Cl)cc2)c(=O)c1`, in series [1], the Activity is -7.9%. Also, the IC50 in series [2] was determined as 2.7 µM.

Regarding `Cc1cccc(-n2ccc(OCC(Oc3ccccc3)c3ccccc3)cc2=O)c1` (configuration not stated), the Activity in series [1] amounted to 14%. For the same compound, in [2], the IC50 was over 10 µM.

Regarding `Cc1cccc(-n2ccc(OCC(C)COc3ccccc3)cc2=O)c1` (single isomer, unassigned; form 2) [listing 1 of 2 here], the Activity in [1] is -7.3%.

With `Cc1cccc(-n2ccc(OCC3CCc4ccccc4O3)cc2=O)c1` (racemic), in series [1], the Activity is -0.77%. In addition, the IC50 in series [2] came to 4.1 µM.

As to `Cc1cccc(-n2ccc(O[C@H](C)COc3ccccc3)cc2=O)c1`, the fraction unbound in [3] was found to be 0.018; in [5], 0.055. Further, the result in the series on Mus musculus [7], in the series with Mus musculus [10] and in the series with Mus musculus [18] was Active. The Activity in series [1] was -4.3%. Moreover, the concentration in series [8] was 272 nM; in series [11] it was 386 nM. Moreover, in series [4], the Kp uu stood at 0.53. Further, the minimal effective dose with Mus musculus [9] was determined as 10 mg/kg. Also, in the series with Mus musculus [12], the outcome was inactive. The compound also registered a clearance in [13] of 31 mL/min/kg. The Vd in series [14] was found to be 3.82 L/kg. In series [15], this compound showed a half-life of 2 h. Further, in series [16], the MRT is 2.05 h. In addition, the Kp came to 1.42 in series [17] and 1.6 in series [6]. In series [2], the IC50 was found to be 1.5 µM.

Regarding `Cc1cccc(-n2ccc(OCC(C)COc3ccccc3)cc2=O)c1` (single isomer, unassigned; form 2) [listing 2 of 2 here], in series [2], the IC50 was determined as 1.3 µM.

On to `CC(COc1ccccc1)COc1ccn(-c2ccc(Cl)cc2)c(=O)c1` (single isomer, unassigned), for which the free fraction (fraction unbound) in series [3] stood at 0.008; in series [5], 0.01. Besides, the Activity in series [1] amounted to 36%. Moreover, the 50% inhibitory concentration (IC50) in [2] is 0.92 µM. Moreover, the Kp in [6] came out at 1.6.

As for `C[C@@H](COc1ccn(-c2ccc(F)cc2)c(=O)c1)Oc1ccccc1`, the Activity in series [1] is -5.7%. Also, the minimal effective dose in the series on Mus musculus [9] came out at 10 mg/kg. Further, the IC50 in series [19] fell in the range of 1.28 to 1.3 µM. The compound further yielded a clearance in [13] of 76.3 mL/min/kg. In addition, the Vd in series [14] was found to be 2.05 L/kg. This compound displayed a half-life in series [15] of 0.39 h. In [16], this compound gave an MRT of 0.448 h.

Take `Cc1cccc(-n2ccc(OCC(C)COc3ccccc3)cc2=O)c1` (racemic) [listing 1 of 2 here]: in [2], the IC50 is 3.2 µM.

On to `O=c1cc(OCC(Oc2ccccc2)c2ccccc2)ccn1-c1ccc(F)cc1` (configuration not stated), for which the Activity in [1] was 4.9%. Further, the IC50 in [2] was over 10 µM.

`CC(COc1ccccc1)COc1ccn(-c2ccc(F)cc2)c(=O)c1` (racemic): the Activity in [1] worked out at 6.6%. The IC50 in series [2] was 3.2 µM.

`C[C@@H](COc1ccccc1)Oc1ccn(-c2ccc(F)cc2)c(=O)c1`: the Activity in series [1] was found to be 32%. Moreover, the IC50 in series [2] is over 10 µM.

With `CN(C)CCCC1(c2ccc(F)cc2)OCc2cc(C#N)ccc21` (configuration not stated), the outcome with Mus musculus [20], in the series on Mus musculus [21] and with Mus musculus [22] was Active. Further, in the series on Mus musculus [12], the outcome was inactive.

On to `CC(COc1ccccc1)COc1ccn(-c2cccc(Cl)c2)c(=O)c1` (single isomer, unassigned), for which the Activity in series [1] was -4.4%. Besides, in series [2], the IC50 was 1.4 µM.

`Cc1cccc(-n2ccc(OCC(C)COc3ccccc3)cc2=O)c1` (racemic) [listing 2 of 2 here]: the Activity in series [1] is 4.6%.

For `C[C@H](COc1ccn(-c2ccc(F)cc2)c(=O)c1)Oc1ccccc1`, in series [1], the Activity stood at 1.3%. Further, in series [2], the IC50 is over 10 µM.
